In patent US8178506B2, “Oligomeric compounds and compositions for use in modulation of small non-coding RNAs” (Regulus Therapeutics Inc., priority 2003, dated 2012):
In the oligonucleotide strings, read from the 5' end, every base follows the letter of its sugar. An asterisk marks phosphorothioate; unmarked linkages are phosphodiester. Other units and linkages are bracketed, terminal groups are in braces. A string of capitals states the bases alone. e = 2'-O-(2-methoxyethyl) (MOE); [5mC] = 5-methylcytosine; d = 2'-deoxy (DNA)

tested on: T47D cells; experiment: Caspase-3 activity assay (apoptosis) in T47D cells; settings: T47D cells, 200 nM oligomeric compound, 48 hours; experiment of Table 10

| Substance | Fold Increase over UTC (caspase-3 activity, apoptosis) |
| --- | --- |
| 328398 (antisense eG*e[5mC]*e[5mC]*eA*eT*dT*dG*dG*dG*dA*d[5mC]*d[5mC]*dT*dG*d[5mC]*eA*e[5mC]*eA*eG*e[5mC]) [compound 328398] | 0.9 fold |
| 328385 (eA*eG*eT*eG*e[5mC]*dT*dA*dA*dT*dA*d[5mC]*dT*dT*d[5mC]*dT*eT*eT*e[5mC]*eA*eT; antisense) [compound 328385] | 0.9 fold |
| 328652 (eG*eG*e[5mC]*e[5mC]*eT*dA*dA*dT*dA*dT*d[5mC]*d[5mC]*d[5mC]*dT*dA*e[5mC]*e[5mC]*e[5mC]*e[5mC]*eA; antisense) [compound 328652] | 1.2 fold |
| 328395 (antisense e[5mC]*e[5mC]*e[5mC]*eA*eG*dT*dG*dG*dT*dG*dG*dG*dT*dG*dT*eG*eA*e[5mC]*e[5mC]*e[5mC]) [compound 328395] | 1.0 fold |
| 328672 (eA*eA*eG*eG*e[5mC]*dT*dT*dT*dT*dT*dG*d[5mC]*dT*d[5mC]*dA*eA*eG*eG*eG*e[5mC]; antisense) [compound 328672] | 0.9 fold |
| 328402 (antisense eT*eT*eG*eA*eA*d[5mC]*dT*d[5mC]*d[5mC]*dA*dT*dG*d[5mC]*d[5mC]*dA*e[5mC]*eA*eA*eG*eG) [compound 328402] | 1.2 fold |

same assay, conditions: T47D cells, 200 nM oligomeric compound, 48 hours; experiment of Table 11

| Substance | Fold Increase over UTC (caspase-3 activity, apoptosis) |
| --- | --- |
| 328426 (antisense eG*eG*eT*eT*eG*dG*d[5mC]*d[5mC]*dG*d[5mC]*dA*dG*dA*d[5mC]*dT*e[5mC]*eG*eT*eA*e[5mC]) [compound 328426] | 1.3 fold |
| 328376 (eT*e[5mC]*eA*e[5mC]*eA*dA*dT*d[5mC]*d[5mC]*d[5mC]*d[5mC]*dA*d[5mC]*d[5mC]*dA*eA*eA*e[5mC]*eT*e[5mC]; antisense) [compound 328376] | 0.7 fold |
| 328638 (e[5mC]*e[5mC]*eG*eA*eG*dG*dG*dT*d[5mC]*dT*dA*dA*d[5mC]*d[5mC]*d[5mC]*eA*eG*e[5mC]*e[5mC]*e[5mC]; antisense) [compound 328638] | 0.8 fold |
| 328637 (eG*eG*eT*eT*e[5mC]*d[5mC]*dT*dA*dA*dT*dT*dA*dA*dA*d[5mC]*eA*eA*e[5mC]*e[5mC]*e[5mC]; antisense) [compound 328637] | 1.0 fold |
| 328406 (antisense eA*eG*e[5mC]*eA*eA*dG*dT*d[5mC]*dT*dA*d[5mC]*dT*d[5mC]*d[5mC]*dT*e[5mC]*eA*eG*eG*eG) [compound 328406] | 1.0 fold |
| 328404 (antisense eG*eT*eA*eG*eA*dT*d[5mC]*dT*d[5mC]*dA*dA*dA*dA*dA*dG*e[5mC]*eT*eA*e[5mC]*e[5mC]) [compound 328404] | 0.9 fold |
| 328411 (antisense eT*eA*e[5mC]*e[5mC]*eT*d[5mC]*dT*dG*d[5mC]*dA*dG*dT*dA*dT*dT*e[5mC]*eT*eA*e[5mC]*eA) [compound 328411] | 0.8 fold |
| 328689 (eT*eA*e[5mC]*eA*eA*dT*dT*dT*dG*dG*dG*dA*dG*dT*d[5mC]*e[5mC]*eT*eG*eA*eA; antisense) [compound 328689] | 0.8 fold |
| 328435 (antisense eT*e[5mC]*eT*eA*eA*dG*dG*dG*dG*dT*d[5mC]*dA*d[5mC]*dA*dG*eA*eA*eG*eG*eT) [compound 328435] | 1.3 fold |
| 328653 (eG*eT*eG*eT*eT*d[5mC]*dA*dG*dA*dA*dA*d[5mC]*d[5mC]*d[5mC]*dA*eG*eG*e[5mC]*e[5mC]*e[5mC]; antisense) [compound 328653] | 1.1 fold |

same assay, conditions: T47D cells, 200 nM oligomeric compound, 48 hours; experiment of Table 12

| Substance | Fold Increase over UTC (caspase-3 activity, apoptosis) |
| --- | --- |
| 328693 (eT*eT*eT*eG*eA*dT*dT*dT*dT*dA*dA*dT*dT*d[5mC]*d[5mC]*eA*eA*eA*e[5mC]*eT; antisense) [compound 328693] | 1.0 fold |
| 328418 (antisense eA*eG*eT*eG*eT*d[5mC]*dT*d[5mC]*dA*dT*d[5mC]*dG*d[5mC]*dA*dA*eA*e[5mC]*eT*eT*eA) [compound 328418] | 1.0 fold |
| 328641 (eT*eG*e[5mC]*eT*eG*dA*d[5mC]*dT*dG*d[5mC]*dT*d[5mC]*dG*d[5mC]*d[5mC]*e[5mC]*eT*eT*eG*e[5mC]; antisense) [compound 328641] | 1.1 fold |
| 328387 (eT*eT*eA*eT*e[5mC]*dG*dG*dA*dA*d[5mC]*dT*dT*d[5mC]*dA*d[5mC]*eA*eG*eA*eG*eA; antisense) [compound 328387] | 1.4 fold |
| 328650 (eA*eA*eT*e[5mC]*e[5mC]*dA*dT*dT*dG*dA*dA*dG*dA*dG*dG*e[5mC]*eG*eA*eT*eT; antisense) [compound 328650] | 0.8 fold |
| 328640 (eT*e[5mC]*eT*e[5mC]*e[5mC]*dT*dT*dG*dG*dG*dT*dG*dT*d[5mC]*d[5mC]*eT*e[5mC]*e[5mC]*eT*e[5mC]; antisense) [compound 328640] | 0.9 fold |

same assay, conditions: T47D cells, 200 nM, 48 hours, relative to untreated control

| Substance | Fold Increase over UTC (caspase activity) |
| --- | --- |
| 328381 (eA*e[5mC]*eA*eG*eG*dT*dG*dA*dG*d[5mC]*dG*dG*dA*dT*dG*eT*eT*e[5mC]*eT*eG; antisense) [compound 328381] | 1.1 |
| 328643 (e[5mC]*eA*eT*eG*eA*dA*dG*dA*dA*dA*dG*dA*d[5mC]*dT*dG*eT*eA*eG*e[5mC]*e[5mC]; antisense) [compound 328643] | 0.9 |
| 328692 (eT*eT*eG*eT*eA*dT*dG*dG*dA*d[5mC]*dA*dT*dT*dT*dA*eA*eA*eT*e[5mC]*eA; antisense) [compound 328692] | 1.2 |

same assay, conditions: caspase assay, 200 nM; conclusion from Tables 9-12

| Substance | apoptosis in T47D cells |
| --- | --- |
| TACAACGGCATTGTCCTGAA (antisense; same sequence listed as MOE 5-10-5 gapmer and as uniform MOE, further chemistry not given here) [ISIS 328655] | prevent or have a protective effect from apoptosis |
| GACTACTGTTGAGAGGAACA (antisense; same sequence listed as MOE 5-10-5 gapmer and as uniform MOE, further chemistry not given here) [ISIS 328639] | prevent or have a protective effect from apoptosis |
| SEQ ID NO 528: gapmer of Tables 9-12 having this SEQ ID NO (antisense eT*eG*eT*eT*eG*d[5mC]*d[5mC]*dT*dA*dA*d[5mC]*dG*dA*dA*d[5mC]*eA*e[5mC]*eA*eG*eA) | prevent or have a protective effect from apoptosis |
| SEQ ID NO 488: gapmer of Tables 9-12 having this SEQ ID NO (antisense e[5mC]*eT*eG*eA*e[5mC]*dT*dG*dA*dG*dA*d[5mC]*dT*dG*dT*dT*e[5mC]*eA*e[5mC]*eA*eG) | induce apoptosis |
| SEQ ID NO 521: gapmer of Tables 9-12 having this SEQ ID NO (antisense eT*eT*eT*eA*e[5mC]*dT*d[5mC]*dA*dT*dA*d[5mC]*d[5mC]*dT*d[5mC]*dG*e[5mC]*eA*eA*e[5mC]*e[5mC]) | induce apoptosis |
| ISIS 328371: 5-10-5 2′-MOE gapmer PS; targets mir-1d pri-miRNA (eT*e[5mC]*e[5mC]*eA*eT*dA*dG*d[5mC]*dT*dT*dA*dG*d[5mC]*dA*dG*eG*eT*e[5mC]*e[5mC]*eA) | induce apoptosis |
| GCCTCCTTCATATATTCTCA (antisense; same sequence listed as MOE 5-10-5 gapmer and as uniform MOE, further chemistry not given here) [ISIS 328690] | prevent or have a protective effect from apoptosis |
| GGCCTAATATCCCTACCCCA (antisense; same sequence listed as MOE 5-10-5 gapmer and as uniform MOE, further chemistry not given here) [ISIS 328652] | induce apoptosis |
| CTCTAGCTCCCTCACCAGTG (antisense; same sequence listed as MOE 5-10-5 gapmer and as uniform MOE, further chemistry not given here) [ISIS 328696] | induce apoptosis |
| SEQ ID NO 520: gapmer of Tables 9-12 having this SEQ ID NO (antisense eT*eA*e[5mC]*e[5mC]*eT*d[5mC]*dT*dG*d[5mC]*dA*dG*dT*dA*dT*dT*e[5mC]*eT*eA*e[5mC]*eA) | prevent or have a protective effect from apoptosis |
| SEQ ID NO 535: gapmer of Tables 9-12 having this SEQ ID NO (antisense eG*eG*eT*eT*eG*dG*d[5mC]*d[5mC]*dG*d[5mC]*dA*dG*dA*d[5mC]*dT*e[5mC]*eG*eT*eA*e[5mC]) | induce apoptosis |
| SEQ ID NO 511: gapmer of Tables 9-12 having this SEQ ID NO (antisense eT*eT*eG*eA*eA*d[5mC]*dT*d[5mC]*d[5mC]*dA*dT*dG*d[5mC]*d[5mC]*dA*e[5mC]*eA*eA*eG*eG) | induce apoptosis |
| ACTGATTCAAGAGCTTTGTA (antisense; same sequence listed as MOE 5-10-5 gapmer and as uniform MOE, further chemistry not given here) [ISIS 328648] | induce apoptosis |
| SEQ ID NO 541: gapmer of Tables 9-12 having this SEQ ID NO (eG*eA*eG*e[5mC]*eA*dT*dG*d[5mC]*dA*dA*d[5mC]*dA*d[5mC]*dT*d[5mC]*eT*eG*eT*eG*e[5mC]) | prevent or have a protective effect from apoptosis |
| ISIS 328381: 5-10-5 2′-MOE gapmer PS; targets mir-214 pri-miRNA (eA*e[5mC]*eA*eG*eG*dT*dG*dA*dG*d[5mC]*dG*dG*dA*dT*dG*eT*eT*e[5mC]*eT*eG) | induce apoptosis |
